From article PMC7737618, “Structure and elevator mechanism of the mammalian sodium/proton exchanger NHE9” (The EMBO Journal, 2020)
Changes are numbered by the printed parent chain.

Legend:
[1] = biological target: T1, NHE9* (Equus caballus, UniProt F7B113); test: GFP-based thermal shift (FSEC-TS); format: binding; settings: 1% DDM, 1% octyl glucoside, 10 min heating; lipid 1 mg/ml in the screen
T1 construct: gene SLC9A9; residues 8-575 (8-574 elsewhere) of 644, C-terminal tail truncated; GFP-TwinStrep-His8 fusion kept for thermal shift; S. cerevisiae FGY217; purified homodimer
T1 sequence (F7B113 8-575): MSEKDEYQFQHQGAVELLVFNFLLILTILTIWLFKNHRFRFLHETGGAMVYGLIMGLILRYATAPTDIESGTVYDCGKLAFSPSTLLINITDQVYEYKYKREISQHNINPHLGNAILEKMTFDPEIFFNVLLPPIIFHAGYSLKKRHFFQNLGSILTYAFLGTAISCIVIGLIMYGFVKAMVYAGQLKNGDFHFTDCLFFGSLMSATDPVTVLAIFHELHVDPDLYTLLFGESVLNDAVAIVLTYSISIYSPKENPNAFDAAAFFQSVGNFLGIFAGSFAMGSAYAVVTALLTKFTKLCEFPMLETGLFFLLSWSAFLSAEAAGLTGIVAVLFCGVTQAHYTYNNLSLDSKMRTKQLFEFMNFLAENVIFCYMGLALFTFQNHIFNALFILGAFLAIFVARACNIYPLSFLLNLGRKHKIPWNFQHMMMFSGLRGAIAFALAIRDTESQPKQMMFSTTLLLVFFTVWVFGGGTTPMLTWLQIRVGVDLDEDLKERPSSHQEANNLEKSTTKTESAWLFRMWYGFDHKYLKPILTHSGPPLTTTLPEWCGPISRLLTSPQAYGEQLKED
From the text: GFP-based thermal shift (FSEC-TS) on NHE9* | In the presence of either PIP2 or PIP3, the average melting temperature (ΔT m)

[2] = biological target: T2, NHE9 ΔCTD (Equus caballus, UniProt F7B113); test: GFP-based thermal shift (FSEC-TS); format: binding; settings: 1% DDM, 1% octyl glucoside, 10 min heating; lipid 1 mg/ml in the screen
T2 construct: gene SLC9A9; residues 8-481 of 644, whole C-terminal regulatory domain removed; GFP-TwinStrep-His8 fusion for thermal shift; S. cerevisiae FGY217; purified homodimer
T2 sequence (F7B113 8-481): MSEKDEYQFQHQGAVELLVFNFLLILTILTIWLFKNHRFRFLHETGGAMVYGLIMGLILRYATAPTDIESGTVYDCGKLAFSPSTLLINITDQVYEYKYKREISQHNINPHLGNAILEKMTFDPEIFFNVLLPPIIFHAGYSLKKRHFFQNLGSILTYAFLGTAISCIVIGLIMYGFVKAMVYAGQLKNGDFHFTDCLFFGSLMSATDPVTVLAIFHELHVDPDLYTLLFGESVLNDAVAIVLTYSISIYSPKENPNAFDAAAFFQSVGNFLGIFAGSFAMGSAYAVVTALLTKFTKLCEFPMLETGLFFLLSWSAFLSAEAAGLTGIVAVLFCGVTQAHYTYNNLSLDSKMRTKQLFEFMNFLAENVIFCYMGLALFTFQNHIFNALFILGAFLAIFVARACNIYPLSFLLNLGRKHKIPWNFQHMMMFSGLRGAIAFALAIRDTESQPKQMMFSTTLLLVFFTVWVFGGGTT

[3] = biological target: T3, NHE9* (Equus caballus, UniProt F7B113, K85Q/K105Q/K107Q); test: GFP-based thermal shift (FSEC-TS); format: binding; settings: 1% DDM, 1% octyl glucoside, 10 min heating; lipid 1 mg/ml in the screen; TM2-TM3 loop mutant
T3 construct: gene SLC9A9; residues 8-575 (8-574 elsewhere) of 644, C-terminal tail truncated; GFP-TwinStrep-His8 fusion kept for thermal shift; S. cerevisiae FGY217; purified homodimer
T3 sequence (F7B113 8-575 K85Q/K105Q/K107Q): T1 sequence (F7B113 8-575) with K78Q, K98Q, K100Q

[4] = biological target: horse NHE9* (residues 8-575 out of 644), TEV-cleaved (Equus caballus (horse)); test: native MS; 100 mM ammonium acetate pH 7.0, 0.02% (w/v) DDM; NHE9* purified with or without added brain lipids
[5] = biological target: the molecule itself; test: cryo-EM structure; purified protein in LMNG/CHS, 20 mM Tris-HCl pH 7.5, 150 mM NaCl; brain lipids added during purification; no symmetry imposed (C1)

CCCCCCCC(=O)OC[C@H](COP(=O)(O)O[C@@H]1[C@H](O)[C@H](O)[C@@H](OP(=O)(O)O)[C@H](OP(=O)(O)O)[C@H]1O)OC(=O)CCCCCCC [PIP2, phosphatidylinositol bis‐4,5‐phosphate,1,2‐dioctanoyl]
ΔTm [1]: 9 °C | ΔTm [2]: the ΔCTD construct was also analysed, yet additional stabilization upon PIP2 addition was still observed | ΔTm [3]: a triple lysine‐to‐glutamine loop mutant markedly reduced PIP2‐mediated stabilization

CCCCCCCCCCCCCCCC(=O)OC[C@H](COP(=O)(O)O[C@H]1[C@H](O)[C@@H](OP(=O)(O)O)[C@H](OP(=O)(O)O)[C@@H](OP(=O)(O)O)[C@H]1O)OC(=O)CCCCCCCCCCCCCCC [PIP3, phosphatidylinositol tris‐3,4,5‐phosphate,1,2‐dipalmitoyl]
ΔTm [1]: 9 °C

horse NHE9* (residues 8-575 out of 644), TEV-cleaved (domain or fragment)
stoichiometry N [4]: 2

B1: horse NHE9 ΔCTD (residues 8-481 out of 644) (domain or fragment, Equus caballus (horse), UniProt F7B113 8-481, looked up)
chain: T2 sequence (F7B113 8-481)
notes: horse (Equus caballus) NHE9 (SLC9A9), residues 8-481 out of 644, lacking the entire C-terminal regulatory domain; C-terminal residues left after TEV cleavage are probably as in NHE9* (surmise); also called ΔCTD construct; source: S. cerevisiae FGY217, purified (Strep-Tactin XT, TEV digestion, SEC); not shown: GFP, C-terminal, cleaved; TwinStrep, C-terminal, cleaved; His8, C-terminal, cleaved
binding result [5]: binds
